Columns and labels:
Assay in all cases: normalised viability (% of control), CellTiter-Blue; higher = more viable cells (about 100 = DMSO control)
Settings in all cases: incubation time: 72 h
BT-474 = system: BT-474
Outline: (§1)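 Breast cancer cell lines were treated for 72 h in 384-well format and measured by CellTiter-Blue fluorescence at 560/590 nm. Results were normalised per plate to vehicle (100) and a positive kill control (0). The entry is normalised viability at a single listed concentration of the series.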

CAL-120 = system: CAL-120
Outline: as §1

CAL-85-1 = system: CAL-85-1
Outline: as §1

HCC1937 = system: HCC1937
Outline: as §1

HDQ-P1 = system: HDQ-P1
Outline: as §1

MDA-MB-436 = system: MDA-MB-436
Outline: as §1

MDA-MB-453 = system: MDA-MB-453
Outline: as §1

MFM-223 = system: MFM-223
Outline: as §1

SK-BR-3 = system: SK-BR-3
Outline: as §1

Row | SMILES | normalised viability (BT-474; 1 nM) [%] | normalised viability (BT-474; 100 nM) [%] | normalised viability (BT-474; 1000 nM) [%] | normalised viability (CAL-120; 1 nM) [%] | normalised viability (CAL-120; 100 nM) [%] | normalised viability (CAL-120; 1000 nM) [%] | normalised viability (CAL-85-1; 0.3 nM) [%] | normalised viability (CAL-85-1; 3 nM) [%] | normalised viability (CAL-85-1; 10 nM) [%] | normalised viability (HCC1937; 1 nM) [%] | normalised viability (HCC1937; 100 nM) [%] | normalised viability (HCC1937; 1000 nM) [%] | normalised viability (HDQ-P1; 0.3 nM) [%] | normalised viability (HDQ-P1; 3 nM) [%] | normalised viability (HDQ-P1; 10 nM) [%] | normalised viability (MDA-MB-436; 1 nM) [%] | normalised viability (MDA-MB-436; 1000 nM) [%] | normalised viability (MDA-MB-453; 3 nM) [%] | normalised viability (MFM-223; 1000 nM) [%] | normalised viability (SK-BR-3; 1000 nM) [%] | also measured
1 | CC(=O)O[C@H]1C(=O)[C@@]2(C)[C@H]([C@H](OC(=O)c3ccccc3)[C@]3(O)C[C@H](OC(=O)[C@H](O)[C@@H](NC(=O)c4ccccc4)c4ccccc4)C(C)=C1C3(C)C)[C@]1(OC(C)=O)CO[C@@H]1C[C@@H]2O [Paclitaxel] | 106 | 25.2 | 27.7 | 89.7 | 23.6 | 22.7 | 99.5 | 76.9 | 62.2 | 91.1 | 15.3 | 19.7 | 88.2 | 55.6 | 46.1 | 100 | 42.2 | 63.2 | 51.7 | 12.9 | normalised viability (MDA-MB-436; 100 nM): 50.5%; normalised viability (MDA-MB-453; 0.3 nM): 87.7%; normalised viability (MDA-MB-453; 10 nM): 43.5%; normalised viability (MFM-223; 1 nM): 98.2%; normalised viability (MFM-223; 100 nM): 45.1%; normalised viability (SK-BR-3; 1 nM): 84.8%; normalised viability (SK-BR-3; 100 nM): 13.9%
2 | CC(C)(C)c1cc(NC(=O)Nc2ccc(-c3cn4c(n3)sc3cc(OCCN5CCOCC5)ccc34)cc2)no1 [Quizartinib] | 95.2 | 104 | 96.6 | 93.8 | 96.6 | 96.6 | 96.9 | 97.8 | 105 | 59.2 | 81.8 | 99.8 | 94.2 | 103 | 98.8 | 104 | 87.6 | 110 | 83.8 | 96.5 | normalised viability (MDA-MB-436; 100 nM): 45.7%; normalised viability (MDA-MB-453; 0.3 nM): 118%; normalised viability (MDA-MB-453; 10 nM): 105%; normalised viability (MFM-223; 1 nM): 86%; normalised viability (MFM-223; 100 nM): 86.4%; normalised viability (SK-BR-3; 1 nM): 88.4%; normalised viability (SK-BR-3; 100 nM): 93.5%
3 | COc1cc(Nc2ncc(F)c(Nc3ccc4c(n3)NC(=O)C(C)(C)O4)n2)cc(OC)c1OC [R406] |  |  | 111 |  |  | 91.3 |  | 93.8 |  |  |  | 98.2 |  | 111 |  |  | 102 | 119 | 89.5 | 98.3 | normalised viability (BT-474; 10 nM): 133%; normalised viability (BT-474; 10000 nM): 130%; normalised viability (CAL-120; 10 nM): 90.6%; normalised viability (CAL-120; 10000 nM): 80.5%; normalised viability (CAL-85-1; 30 nM): 87.8%; normalised viability (CAL-85-1; 100 nM): 97.5%; normalised viability (HCC1937; 10 nM): 105%; normalised viability (HCC1937; 10000 nM): 86%; normalised viability (HDQ-P1; 30 nM): 93.7%; normalised viability (HDQ-P1; 100 nM): 99.5%; normalised viability (MDA-MB-436; 10 nM): 84.3%; normalised viability (MDA-MB-436; 10000 nM): 101%; normalised viability (MDA-MB-453; 30 nM): 102%; normalised viability (MDA-MB-453; 100 nM): 108%; normalised viability (MFM-223; 10 nM): 92.4%; normalised viability (MFM-223; 10000 nM): 85.4%; normalised viability (SK-BR-3; 10 nM): 104%; normalised viability (SK-BR-3; 10000 nM): 112%
